Data reported in US20220062331A1, “TREATING IRON DEFICIENCY IN SUBJECTS AT RISK OF CARDIOVASCULAR ADVERSE EVENTS AND IRON FOR THE MANAGEMENT OF ATRIAL FIBRILLATION” (PHARMACOSMOS HOLDING A/S, priority 2019, published 2022).

Columns and labels:
iFGF23 (intact FGF23) = conditions: cited from earlier work
[1] = Combined CKD-04/IDA-03 studies: treatment-emergent cardiovascular and congestive heart failure adverse events; format: in vivo; conditions: for composite cardiovascular events (incidence, % of patients): 2008 patients on IIM, p=0.0176; for treatment-emergent congestive heart failure adverse events (% of patients) / worsening/exacerbation of heart failure (% of cases): all patients with CHF
Method: (§1) Two Phase III randomized, open-label, comparative safety and efficacy studies were performed in relation to treatment with iron isomaltoside (“IIM”, tradename Monofer®, Monoferric®) and iron sucrose (“IS”, trade name Venofer®) in adult human subjects with iron deficiency anaemia and non-dialysis-dependent chronic kidney disease. These studies allowed comparing the incidence of treatment-emergent cardiovascular adverse events in particular in patients with cardiovascular risk factors.
The studies were randomized, open-label, comparative studies. Subjects with iron deficiency anaemia (IDA) were randomized 1:1 to one treatment course of one of two treatments. Iron isomaltoside 1000 was administered as a single dose of 1000 mg of elemental iron. Iron sucrose was administered as 200 mg slow intravenous bolus injections according to its US label and repeated up to 5 times to reach a cumulative dose of 1000 mg.
Said protocol defined cardiovascular adverse events were as follows: • (1) Congestive heart failure requiring hospitalization or medical intervention: • Congestive heart failure requiring hospitalization or medical intervention was defined as meeting the following criteria: • Requires hospitalization defined as an admission to an inpatient unit or a visit to an emergency department that results in at least a 12-hour stay (or a date change if the time of admission/discharge is not available); AND • Clinical manifestation of congestive heart failure including at least one of the following: new or worsening dyspnoea, orthopnoea, paroxysmal nocturnal dyspnoea, oedema, pulmonary basilar crackles, jugular venous distension, or radiological evidence of worsening heart failure; AND • Additional/increased therapy: • Intravenous treatment with diuretic, inotrope, or vasodilator therapy; OR • Mechanical or surgical intervention (mechanical circulatory support, heart transplantation, or ventricular pacing to improve cardiac function) or the use of ultrafiltration, hemofiltration, or dialysis that is specifically directed at treatment of heart failure. • (2) Arrhythmia: • Arrhythmia was defined as any symptomatic deviation from normal sinus rhythm experienced by the subject that results in an evaluation by a health care provider. The evaluation included a physical examination during an outpatient visit, an ECG, or a hospital admission. […]

[2] = CKD-04 Phase III study: protocol defined cardiovascular adverse events; format: in vivo, human; conditions: for composite cardiovascular events (incidence, % of patients): CKD-04 study, IIM 1000 mg single dose (1019 patients) vs iron sucrose 5 x 200 mg (506 patients), within 8 weeks
Method: as §1
(§2) The studies were randomized, open-label, comparative studies. Subjects with iron deficiency anaemia (IDA) were randomized 1:1 to one treatment course of one of two treatments. Iron isomaltoside 1000 was administered as a single dose of 1000 mg of elemental iron. Iron sucrose was administered as 200 mg slow intravenous bolus injections according to its US label and repeated up to 5 times to reach a cumulative dose of 1000 mg. […]

[3] = Randomized double-blind placebo-controlled trial in chronic heart failure patients: P-wave dispersion on 12-lead ECG (post-hoc analysis); format: in vivo, human
Description: This study was a post-hoc analysis of a randomized, double-blind, placebo-controlled trial that was approved by the South-Central Berkshire ethics committee, the UK Medicines and Healthcare products Regulatory Agency, and the King's College Hospital independent research governance board. King's College London University and King's College Hospital NHS Foundation Trust were co-sponsors. The King's Health Partners clinical trial office monitored the trial and ensured compliance with the International Conference on Harmonization guidelines for Good Clinical Practice and the Declaration of Helsinki. Written informed consent was obtained from all patients. FIG. 1 represents a flow chart of the trial. A total of 25 chronic heart failure patients in normal sinus rhythm were recruited into this trial with 15 randomized to intravenous saline placebo and 10 randomized to intravenous iron isomaltoside.
Patients with stable, symptomatic, chronic heart failure and a left ventricular ejection fraction <45% were recruited from dedicated heart failure clinics at King's College Hospital, London. Main exclusion criteria were a history of acquired iron overload, known haemochromatosis or first degree relatives with haemochromatosis; an allergic disorder (e.g., asthma, eczema, and anaphylactic reactions); prior hypersensitivity to IV iron drugs or their excipients; active infection, bleeding, malignancy, haemolytic anemia, rheumatoid arthritis, and myelodysplasia; and HIV/AIDS.
After inclusion into the trial, patients had endpoints assessed which included a 12-lead surface electrocardiogram to measure P-wave dispersion (difference between maximum and minimum P-wave duration across all leads), heart rate (HR), PR interval, QRS duration, QT interval and corrected QT interval (QTc). FIG. 2 is an example of a surface electrocardiogram with P-wave durations measured. An echocardiogram was also done to measure LVEF, left ventricular end-diastolic volume (LVED), left ventricular end-systolic volume (LVES), left atrial (LA) volumes and right atrial (RA) volumes with and without indexing for body surface area. After baseline assessments, patients were then infused a total repletion dose of iron isomaltoside or an equivalent volume of normal saline placebo. Endpoints were then reassessed 2 weeks later. A Student's t-test or a Fisher's Exact test were statistically used to assess the baseline characteristics between the groups. An ANCOVA was used to statistically compare the week 2 endpoint results between the groups with adjustment for each variables baseline value.

[4] = 20 elderly CHF patients, cited from earlier work
[5] = IDA-03 Phase III study: protocol defined cardiovascular adverse events; format: in vivo, human; conditions: IDA-03 study, 989 vs 494 patients, within 8 weeks
Method: as §1, §2

[6] = Combined CKD-04/IDA-03 studies: change from baseline in hemoglobin; format: in vivo, human
Method: The primary efficacy outcome measure was the ability to increase Hb (g/dL) within 8 weeks.
The co-primary efficacy endpoint was analysed using a restricted maximum likelihood (REML)-based mixed model for repeated measures (MMRM) approach. All subjects in the intention-to-treat (ITT) analysis set with post baseline Hb data was to be included with their observed data. The model included the fixed, categorical effects of treatment (iron isomaltoside and iron sucrose), week, treatment-by-week interaction, strata, as well as the continuous, fixed covariates of baseline Hb value and baseline Hb-by-week interaction. An unstructured (co)variance structure was used to model the within-subject errors. […] The Kenward-Roger approximation was to be used to estimate the denominator degrees of freedom. The primary comparisons will be the contrasts between iron isomaltoside and iron sucrose at week 8 based on the least squares means for the treatment-by-week interaction effect. The estimated mean difference based on this model was reported with two-sided symmetric 95% CI, and if the lower bound of the 95% CI is >−0.5 g/dL, the efficacy objective has been met.
The following efficacy laboratory parameters were analysed: • Hb: Hemoglobin was analyzed by the Coulter LH 750 System. Lytic reagents were used for the complete blood count parameters to prepare the blood so that the system could measure the amount of hemoglobin. The lytic reagent rapidly and simultaneously destroyed the erythrocytes and converted the substantial proportion of the hemoglobin to a stable pigment. The absorbance of the pigment was directly proportional to the hemoglobin concentration in the sample. […] A chemiluminescent substrate, Lumi-Phos* 530, was added to the reaction vessel and light generated by the reaction was measured with a luminometer. • TSAT (s-iron and transferrin will be collected to calculate the TSAT; TSAT=(iron μg/dL/transferrin mg/dL)×70.9). • S-iron: Serum iron (s-iron) was measured by a calorimetric assay using Roche automated clinical chemistry analyzer based on a immunoturbidimetric assay.

[7] = iron-deficient CHF patients with LVEF ≤45%; single total dose infusion (Jaumdally et al., 2019); cited from earlier work
[8] = single total dose infusion; 2 weeks post-infusion; cited from earlier work

For ferric carboxymaltose, the “effect on iFGF23” value (iFGF23 (intact FGF23); see WO 2013/134273 A1) is listed as “significantly increases”.

In the case of iron sucrose, the “composite cardiovascular events (incidence, % of patients)” value ([1]; combined CKD-04/IDA-03) is reported as 4.1%, the “treatment-emergent congestive heart failure adverse events (% of patients)” value ([1]; combined CKD-04/IDA-03) is reported as 6.5% and the “worsening/exacerbation of heart failure (% of cases)” value ([1]; combined CKD-04/IDA-03) is reported as 5.4%. The “incidence for congestive heart failure” value ([1]; patients with CV risk) was 3.5%, the “worsening of congestive heart failure” value ([1]; patients with CV risk) was 1.7% and the “incidence for congestive heart failure” value ([1]; patients with CV risk and CHF) was 4.9%. The “worsening of congestive heart failure” value ([1]; patients with CV risk and CHF) was 3.7% and the “composite cardiovascular events (incidence, % of patients)” value [2] was 6.9%.

For “ferric derisomaltose [iron isomaltoside 1000]”, the “P-wave dispersion, changes in individual patients (FIG. 5)” value ([3]; ANCOVA P-value 0.007, unchanged in saline placebo group) was “shortened”, the “reduction of P-wave dispersion” value ([3]; at 2 weeks after total repletion dose, vs saline placebo, P=0.007) was 10 ms and the “P-wave dispersion, adjusted difference between the groups (ANCOVA)” value ([3]; at 2 weeks, 95% confidence interval −17 & −3 msec, P=0.007) was -10 ms. The “P-wave dispersion difference after adjusting for size of the atria (indexed LA and RA volumes)” value ([3]; at 2 weeks, 95% confidence interval −18 & −4 msec, P=0.005) was -11 ms, the “effect on the other endpoints (HR, PR, QRS, QT, QTc, LVEF, LV and atrial volumes)” value ([3]; at 2 weeks, ANCOVA) was “no significant effect” and the QoL measures [4] was “improved”. For the same substance, the tolerability ([4]; single fast intravenous infusion at relatively high doses without test dose) was “very well tolerated”, the “incidence on composite CV endpoint (and most sub-items including death from any cause) compared to Venofer and FCM (CDER report)” value ([1]; Ferwon studies vs Injectafer FDA CDER report) was “lower” and the “decrease of composite cardiovascular events when treated with iron isomaltoside 1000 versus iron sucrose” value ([1]; combined CKD-04/IDA-03) was 60%. The “composite cardiovascular events (incidence, % of patients)” value ([1]; combined CKD-04/IDA-03) was 2.5%, the “treatment-emergent congestive heart failure adverse events (% of patients)” value ([1]; combined CKD-04/IDA-03) was 1.8% and the “worsening/exacerbation of heart failure (% of cases)” value ([1]; combined CKD-04/IDA-03) was 1.8%. For the same substance, the “rates of congestive heart failure, hypertension, atrial fibrillation, hypotension, and cardiac arrest compared to iron sucrose” value ([1]; in each study (CKD-04, IDA-03, combined)) was “lower”, the “incidence for congestive heart failure” value ([1]; patients with CV risk) was 1.2% and the “worsening of congestive heart failure” value ([1]; patients with CV risk) was 1.2%. The “incidence for congestive heart failure” value ([1]; patients with CV risk and CHF) was 1.4%, the “worsening of congestive heart failure” value ([1]; patients with CV risk and CHF) was 1.4% and the “composite cardiovascular events (incidence, % of patients)” value [5] was 0.8%. For the same substance, the “composite cardiovascular events (incidence, % of patients)” value ([5]; listed as iron) was 1.2%, the “increase in Hb from baseline compared to iron sucrose” value ([6]; all patients, weeks 1 and 2, p<0.001) was “higher increase” and the “change in Hb from baseline compared to iron sucrose (primary efficacy endpoint)” value ([6]; all patients, weeks 4 and 8) was “non-inferiority”. The “increase in Hb from baseline” value ([6]; patients with congestive heart failure in medical history, week 1 and 2) was “higher increase”, the P wave dispersion [7] was “attenuate” and the iron stores [8] was “repleted”. For the same substance, the skeletal muscle energetics [8] was “augmented”, the “risk for increasing iFGF23 and triggering iFGF23-mediated effects” value (iFGF23 (intact FGF23); clinical trials, Wolf et al., 2019) was “low” and the “probability of not experiencing an adjudicated composite adverse cardiovascular event, compared to iron sucrose” value ([2]; CKD-04, after 8 weeks, Kaplan-Meier) was “significantly higher”. The “composite cardiovascular events (incidence, % of patients)” value [2] was 4.1%.
